Measured values reported in ChEMBL document CHEMBL4842347, “Structure-activity relationship and biochemical evaluation of novel fibroblast activation protein and prolyl endopeptidase inhibitors with α-ketoamide warheads” (Eur J Med Chem, 2021).
The source made the active and inactive calls.

Experiments:
Type in all cases: functional
HL-60 = test: Cytotoxicity against human HL-60 cells assessed as reduction in cell viability incubated for 72 hrs measured by […]-based colorimetric assay
HeLa = test: Cytotoxicity against human HeLa cells assessed as reduction in cell viability incubated for 72 hrs measured by […]-based colorimetric assay
CCRF-CEM = test: Cytotoxicity against human CCRF-CEM cells assessed as reduction in cell viability incubated for 72 hrs measured by […]-based colorimetric assay
HepG2 = test: Cytotoxicity against human HepG2 cells assessed as reduction in cell viability incubated for 72 hrs measured by […]-based colorimetric assay

Measured: Activity

COC(=O)[C@H](CC(=O)OCc1ccccc1)NC(=O)CNC(=O)C(=O)[C@@H]1CCCN1C(=O)CNC(=O)c1ccnc2ccccc12
inactive: all assays above

COC(=O)[C@H](CCC(=O)NCc1ccccc1)NC(=O)CNC(=O)C(=O)[C@@H]1CCCN1C(=O)CNC(=O)c1ccnc2ccccc12
inactive: all assays above

CN(C)C(=O)CNC(=O)C(=O)[C@@H]1CCCN1C(=O)CNC(=O)c1ccnc2ccccc12
inactive: all assays above

COC(=O)[C@H](CCC(N)=O)NC(=O)CNC(=O)C(=O)[C@@H]1CCCN1C(=O)CNC(=O)c1ccnc2ccccc12
inactive: all assays above

COC(=O)CNC(=O)C(=O)[C@@H]1CCCN1C(=O)CNC(=O)c1ccnc2ccccc12
inactive: all assays above

O=C(NC1CCCCC1)C(=O)[C@@H]1CCCN1C(=O)CNC(=O)c1ccnc2ccccc12
inactive: all assays above

O=C(NC(c1ccccc1)c1ccccc1)C(=O)[C@@H]1CCCN1C(=O)CNC(=O)c1ccnc2ccccc12
inactive: all assays above

COc1ccc(CNC(=O)CNC(=O)C(=O)[C@@H]2CCCN2C(=O)CNC(=O)c2ccnc3ccccc23)cc1OC
inactive: all assays above

COc1cccc(CNC(=O)C(=O)[C@@H]2CCCN2C(=O)CNC(=O)c2ccnc3ccccc23)c1
inactive: all assays above

COC(=O)[C@H](CO)NC(=O)CNC(=O)C(=O)[C@@H]1CCCN1C(=O)CNC(=O)c1ccnc2ccccc12
inactive: all assays above

O=C(CNC(=O)C(=O)[C@@H]1CCCN1C(=O)CNC(=O)c1ccnc2ccccc12)NCc1ccccc1
inactive: all assays above

COC(=O)[C@H](CC(C)C)NC(=O)CNC(=O)C(=O)[C@@H]1CCCN1C(=O)CNC(=O)c1ccnc2ccccc12
inactive: all assays above

CC(C)NC(=O)C(=O)[C@@H]1CCCN1C(=O)CNC(=O)c1ccnc2ccccc12
inactive: all assays above

COC(=O)[C@H](CCCCN)NC(=O)CNC(=O)C(=O)[C@@H]1CCCN1C(=O)CNC(=O)c1ccnc2ccccc12
inactive: all assays above
